Data on 13 compounds can be found in US9814699B2, “Chemical compounds” (Janssen Pharmaceuticals, Inc., priority 2009, dated 2017).

The structures appear in SMILES notation.

For experiment [1], the system named is HCV genotype 1a subgenomic replicon. In words: HCV replicon assay, genotype 1a subgenomic replicon (luciferase). The class given is cell-based. The following applies: Hepatitis C virus; genotype 1a replicon stable cell line, luciferase activity measured 48 hours later; read-out: Replicon 1A pEC50 (converted). As to the method:
(§1) Protocol for Testing and Data Analysis of Compounds in the HCV Replicon Assay
(§2) Compounds were assayed for activity against HCV using the genotype 1a and 1b subgenomic replicon model systems. Stable cell lines bearing the genotype 1a and 1b replicons were used for screening of compounds. Both replicons are bicistronic and contain the firefly luciferase gene. The ET cell line is stably transfected with RNA transcripts harboring a I389luc-ubi-neo/NS3-3′/ET replicon with firefly luciferase-ubiquitin-neomycin phosphotransferase fusion protein and EMCV-IRES driven NS3-5B polyprotein containing the cell culture adaptive mutations (E1202G; T1280I; K1846T) (Krieger at al, 2001 and unpublished). The genotype 1a replicon is a stable cell line licensed from Apath LLC, modified to contain the firefly luciferase gene. The cells were grown in DMEM, supplemented with 10% fetal calf serum, 2 mM Glutamine, Penicillin (100 IU/mL)/Streptomycin (100 μg/mL), 1× nonessential amino acids, and 250-500 μg/mL G418 (“Geneticin”). They were all available through Life Technologies (Bethesda, Md.). The cells were plated at 5×10^3 cells/well in 384 well plates containing compounds. The final concentration of compounds ranged between 0.03 pM to 50 μm and the final DMSO concentration of 0.5-1%.
(§3) Luciferase activity was measured 48 hours later by adding a Steady glo reagent (Promega, Madison, Wis.). Percent inhibition of replication data was plotted relative to no compound control. Under the same condition, cytotoxicity of the compounds was determined using cell titer glo (Promega, Madison, Ws). EC50s were determined from an 11 point dose response curve using 3-4-fold serial dilution for each compound, which spans a concentration range >1000 fold. The level of inhibition for each compound was determined with Activity Base or with BioAssay plus the Excel XC50 module. Percent inhibition was determined with the following equation where the cross-talk corrected value is the value from the test well, the compound positive control mean is the average value of the wells with no compound present, and the DMSO negative control mean is the average value of the wells with DMSO but no cells present.
(§4) [formula] These normalized values are exported to EC50 where they are plotted against the molar compound concentrations using the standard four parameter logistic equation: […]

The test system of experiment [2] is HCV genotype 1b subgenomic replicon. Nature of the experiment: HCV replicon assay, genotype 1b subgenomic replicon (ET cell line, luciferase). The class given is cell-based. The following applies: Hepatitis C virus; genotype 1b replicon ET cell line, luciferase activity measured 48 hours later; read-out: Replicon 1B pEC50 (converted). As to the method:
as §1, §2, §3, §4

`COC(=O)N[C@H](C(=O)N1CCC[C@H]1c1ncc(-c2ccc(-c3ccc(-c4cnc([C@@H]5CC6(CN5C(=O)[C@@H](NC(=O)OC)C(C)C)O[C@@H](C)C[C@H](C)O6)[nH]4)cc3)cc2)[nH]1)C(C)C` (stereo partly drawn) [Example 1, methyl [(1S)-1-({(2S)-2-[4-(4′-{2-[(3S,7S,9S)-7,9-dimethyl-2-((2S)-3-methyl-2-{[(methyloxy)carbonyl]amino}butanoyl)-6,10-dioxa-2-azaspiro[4.5]dec-3-yl]-1H-imidazol-4-yl}-4-biphenylyl)-1H-imidazol-2-yl]-1-pyrrolidinyl}carbonyl)-2-methylpropyl]carbamate]: the EC50 in experiment [1] is 1.58 nM; in experiment [2] it was 0.01 nM.
For `COC(=O)N[C@H](C(=O)N1CCC[C@H]1c1ncc(-c2ccc(-c3ccc(-c4cnc([C@@H]5CC6(CN5C(=O)[C@@H](NC(=O)OC)C(C)C)OCCO6)[nH]4)cc3)cc2)[nH]1)C(C)C` [Example 2, methyl [(1S)-2-methyl-1-({(2S)-2-[4-(4′-{2-[(8S)-7-((2S)-3-methyl-2-{[(methyloxy)carbonyl]amino}butanoyl)-1,4-dioxa-7-azaspiro[4.4]non-8-yl]-1H-imidazol-4-yl}-4-biphenylyl)-1H-imidazol-2-yl]-1-pyrrolidinyl}carbonyl)propyl]carbamate] the same measures were 0.0398 nM and 0.00794 nM.
For the compound `COC(=O)N[C@H](C(=O)N1CC2(C[C@H]1c1ncc(-c3ccc(-c4ccc(-c5cnc([C@@H]6CC7(CN6C(=O)[C@@H](NC(=O)OC)C(C)C)O[C@@H](C)C[C@H](C)O7)[nH]5)cc4)cc3)[nH]1)O[C@@H](C)C[C@H](C)O2)C(C)C` (stereo partly drawn) [Example 3, dimethyl (4,4′-biphenyldiylbis{1H-imidazole-4,2-diyl[(3S,7S,9S)-7,9-dimethyl-6,10-dioxa-2-azaspiro[4.5]decane-3,2-diyl][(2S)-3-methyl-1-oxo-1,2-butanediyl]})biscarbamate], the EC50 in experiment [1] is 25.1 nM; in experiment [2], 0.0158 nM.
Turning to `COC(=O)N[C@H](C(=O)N1CC2(C[C@H]1c1ncc(-c3ccc(-c4ccc(-c5cnc([C@@H]6CC7(CN6C(=O)[C@@H](NC(=O)OC)C(C)C)OCCO7)[nH]5)cc4)cc3)[nH]1)OCCO2)C(C)C` [Example 4, dimethyl (4,4′-biphenyldiylbis{1H-imidazole-4,2-diyl(8S)-1,4-dioxa-7-azaspiro[4.4]nonane-8,7-diyl[(2S)-3-methyl-1-oxo-1,2-butanediyl]})biscarbamate], the figures for the EC50 in experiment [1] and in experiment [2] were 0.0398 nM and 0.01 nM, respectively.
`COC(=O)N[C@@H](C)C(=O)N1CC2(C[C@H]1c1ncc(-c3ccc(-c4ccc(-c5cnc([C@@H]6CCCN6C(=O)[C@@H](NC(=O)OC)C(C)C)[nH]5)cc4)cc3)[nH]1)OCCCO2` [Example 5, methyl ((1S)-1-methyl-2-{(3S)-3-[4-(4′-{2-[(2S)-1-((2S)-3-methyl-2-{[(methyloxy)carbonyl]amino}butanoyl)-2-pyrrolidinyl]-1H-imidazol-4-yl}-4-biphenylyl)-1H-imidazol-2-yl]-6,10-dioxa-2-azaspiro[4.5]dec-2-yl}-2-oxoethyl)carbamate]: the figures for the EC50 in experiment [1] and in experiment [2] were 0.0794 nM and 0.02 nM, respectively.
Regarding `COC(=O)N[C@H](C(=O)N1CCC[C@H]1c1ncc(-c2ccc(-c3ccc(-c4cnc([C@@H]5CC6(CN5C(=O)[C@@H](NC(=O)OC)C(C)C)OCCCO6)[nH]4)cc3)cc2)[nH]1)C(C)C` [Example 6, methyl [(1S)-2-methyl-1-({(2S)-2-[4-(4′-{2-[(3S)-2-((2S)-3-methyl-2-{[(methyloxy)carbonyl]amino}butanoyl)-6,10-dioxa-2-azaspiro[4.5]dec-3-yl]-1H-imidazol-4-yl}-4-biphenylyl)-1H-imidazol-2-yl]-1-pyrrolidinyl}carbonyl)propyl]carbamate], the EC50 in experiment [1] is 0.0251 nM; in experiment [2], 0.00794 nM.
For `COC(=O)N[C@H](C(=O)N1CCC[C@H]1c1ncc(-c2ccc(-c3ccc(-c4cnc([C@@H]5CC6(CN5C(=O)[C@@H](NC(=O)OC)C(C)C)OCC(C)(C)CO6)[nH]4)cc3)cc2)[nH]1)C(C)C` [Example 7, methyl [(1S)-1-({(2S)-2-[4-(4′-{2-[(3S)-8,8-dimethyl-2-((2S)-3-methyl-2-{[(methyloxy)carbonyl]amino}butanoyl)-6,10-dioxa-2-azaspiro[4.5]dec-3-yl]-1H-imidazol-4-yl}-4-biphenylyl)-1H-imidazol-2-yl]-1-pyrrolidinyl}carbonyl)-2-methylpropyl]carbamate] the same measures were 0.794 nM and 0.00251 nM.
Turning to `[2H]C1([2H])OC2(C[C@@H](c3ncc(-c4ccc(-c5ccc(-c6cnc([C@@H]7CCCN7C(=O)[C@@H](NC(=O)OC)C(C)C)[nH]6)cc5)cc4)[nH]3)N(C(=O)[C@@H](NC(=O)OC)C(C)C)C2)OC([2H])([2H])C1([2H])[2H]` [Example 8, methyl [(1S)-2-methyl-1-({(2S)-2-[4-(4′-{2-[(3S)-2-((2S)-3-methyl-2-{[(methyloxy)carbonyl]amino}butanoyl)-6,10-dioxa-2-azaspiro[4.5]dec-3-yl]-1H-imidazol-4-yl}-4-biphenylyl)-1H-imidazol-2-yl]-1-pyrrolidinyl}carbonyl)propyl]carbamate-d6], the results for the EC50 in experiment [1] and in experiment [2] were 0.0316 nM and 0.00794 nM, respectively.
As to `[2H]C1([2H])OC2(C[C@@H](c3ncc(-c4ccc(-c5ccc(-c6cnc([C@@H]7CCCN7C(=O)[C@@H](NC(=O)OC)C(C)C)[nH]6)cc5)cc4)[nH]3)N(C(=O)[C@@H](NC(=O)OC)C(C)C)C2)OC1([2H])[2H]` [Example 9, methyl [(1S)-2-methyl-1-({(2S)-2-[4-(4′-{2-[(8S)-7-((2S)-3-methyl-2-{[(methyloxy)carbonyl]amino}butanoyl)-1,4-dioxa-7-azaspiro[4.4]non-8-yl]-1H-imidazol-4-yl}-4-biphenylyl)-1H-imidazol-2-yl]-1-pyrrolidinyl}carbonyl)propyl]carbamate-d4], the figures for the EC50 in experiment [1] and in experiment [2] were 0.0316 nM and 0.00631 nM, respectively.
Regarding `COC(=O)N[C@H](C(=O)N1CCC[C@H]1c1ncc(-c2ccc(-c3ccc(-c4cnc([C@@H]5CC6(CN5C(=O)[C@@H](NC(=O)OC)C(C)C)O[C@H](C)[C@@H](C)O6)[nH]4)cc3)cc2)[nH]1)C(C)C` [Example 10, methyl [(1S)-1-({(2S)-2-[4-(4′-{2-[(2R,3R,8S)-2,3-dimethyl-7-((2S)-3-methyl-2-{[(methyloxy)carbonyl]amino}butanoyl)-1,4-dioxa-7-azaspiro[4.4]non-8-yl]-1H-imidazol-5-yl}-4-biphenylyl)-1H-imidazol-2-yl]-1-pyrrolidinyl}carbonyl)-2-methylpropyl]carbamate], the EC50 in experiment [1] is 2 nM; in experiment [2], 0.01 nM.
As for `COC(=O)N[C@H](C(=O)N1CCC[C@H]1c1ncc(-c2ccc(-c3ccc(-c4cnc([C@@H]5CC6(CN5C(=O)[C@@H](NC(=O)OC)C(C)C)O[C@@H](C)[C@H](C)O6)[nH]4)cc3)cc2)[nH]1)C(C)C` [Example 11, methyl [(1S)-1-({(2S)-2-[4-(4′-{2-[(2S,3S,8S)-2,3-dimethyl-7-((2S)-3-methyl-2-{[(methyloxy)carbonyl]amino}butanoyl)-1,4-dioxa-7-azaspiro[4.4]non-8-yl]-1H-imidazol-5-yl}-4-biphenylyl)-1H-imidazol-2-yl]-1-pyrrolidinyl}carbonyl)-2-methylpropyl]carbamate], the EC50 in experiment [1] was 1.26 nM; in experiment [2] it was 0.01 nM.
Turning to `COC(=O)N[C@H](C(=O)N1CCC[C@H]1c1nc(-c2ccc(-c3ccc(-c4c[nH]c([C@@H]5CC6(CN5C(=O)[C@@H](NC(=O)OC)C(C)C)SCCS6)n4)cc3)cc2)c[nH]1)C(C)C` [Example 12, methyl [(1S)-2-methyl-1-({(2S)-2-[4-(4′-{2-[(8S)-7-((2S)-3-methyl-2-{[(methyloxy)carbonyl]amino}butanoyl)-1,4-dithia-7-azaspiro[4.4]non-8-yl]-1H-imidazol-4-yl}-4-biphenylyl)-1H-imidazol-2-yl]-1-pyrrolidinyl}carbonyl)propyl]carbamate], the figures for the EC50 in experiment [1] and in experiment [2] were 0.0794 nM and 0.00398 nM, respectively.
The like results for `CC[C@H](NC(=O)OC)C(=O)N1CC2(C[C@H]1c1nc(-c3ccc(-c4ccc(-c5c[nH]c([C@@H]6CCCN6C(=O)[C@@H](NC(=O)OC)C(C)C)n5)cc4)cc3)c[nH]1)SCCS2` [Example 13, methyl[(1S)-2-methyl-1-({(2S)-2-[4-(4′-{2-[(8S)-7-((2S)-2-{[(methyloxy)carbonyl]amino}butanoyl)-1,4-dithia-7-azaspiro[4.4]non-8-yl]-1H-imidazol-4-yl}-4-biphenylyl)-1H-imidazol-2-yl]-1-pyrrolidinyl}carbonyl)propyl]carbamate] were, in that order, 0.0631 nM and 0.00398 nM.
